Data: ChEMBL document CHEMBL4265888, “Discovery of super soft-drug modulators of sphingosine-1-phosphate receptor 1” (Bioorg Med Chem Lett, 2018)

Key:
[1] = Drug level in human plasma treated with (5-methyl-2-oxo-1,3-dioxol-4-yl)methyl 4-((3-(2-hydroxyphenyl)-4-oxo-2-(propylimino)thiazolidin-5-ylidene)methyl)benzoate at 37 degC; format: ADME, cell-free
[2] = target: Sphingosine 1-phosphate receptor 1 (Homo sapiens, UniProt P21453); assay: Inhibition of S1PR1 (unknown origin) expressed in CHOK1 cells after 90 mins by beta-arresting recuitment assay; format: functional, cell-based
[3] = Drug metabolism in human plasma assessed as formation of 4-((3(2-hydroxyphenyl)-4-oxo-2-(propylimino)thiazolidin-5-ylidene)methyl)benzoic acid at 37 degC; format: ADME, cell-free
[4] = test system: Homo sapiens; assay: Antiinflammatory activity in psoriasis patient assessed as incident of 75% reduction in psoriasis area and severity index score at 40 mg, po dosed daily during phase 2 study for 28 weeks; format: functional; design: scale not given: the % may be the effect or the level left

Chain of Sphingosine 1-phosphate receptor 1 (P21453 whole entry): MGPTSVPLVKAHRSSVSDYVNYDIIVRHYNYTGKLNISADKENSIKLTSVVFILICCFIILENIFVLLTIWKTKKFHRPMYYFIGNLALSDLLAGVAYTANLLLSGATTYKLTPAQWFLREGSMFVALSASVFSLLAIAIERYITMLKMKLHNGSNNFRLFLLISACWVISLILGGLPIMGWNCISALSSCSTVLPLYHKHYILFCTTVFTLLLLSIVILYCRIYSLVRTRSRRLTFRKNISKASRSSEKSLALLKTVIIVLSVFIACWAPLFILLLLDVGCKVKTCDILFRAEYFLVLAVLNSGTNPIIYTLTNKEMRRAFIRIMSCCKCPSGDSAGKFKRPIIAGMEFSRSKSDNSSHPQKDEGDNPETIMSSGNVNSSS

| Drug metabolism [1] | IC50 [2] [µM] | Drug metabolism [3] | SMILES | Activity [4] [%] |
| --- | --- | --- | --- | --- |
| Metabolite_Notdetected | > 1 |  | CCC/N=C1\S/C(=C\c2ccc(C(=O)O)cc2)C(=O)N1c1ccccc1O |  |
|  | > 1 | Metabolite_Detected | CCC/N=C1\S/C(=C\c2ccc(C(=O)OCc3oc(=O)oc3C)cc2)C(=O)N1c1ccccc1O |  |
|  |  |  | CCC/N=C1\S/C(=C\c2ccc(OC[C@H](O)CO)c(Cl)c2)C(=O)N1c1ccccc1C [PONESIMOD] | 77 |
